How the values were obtained:
Plasma free fatty acids = type: in vivo; settings: db/db mice, 2.5 μM/kg/day, 8 days; n = 5
Procedure: All of the experiments were performed according to the animal ethical laws of the state Saxony, Germany, and were approved by the local animal ethics review board (Landesdirektion Sachsen, Leipzig, Germany). Female db/db mice 12–15 weeks of age were purchased from Taconic (Denmark) and housed in groups of 5 in temperature- and humidity-controlled facilities in a 12 h:12 h light–dark cycle and had free access to tap water and food (regular chow, Sniff, Soest, Germany). Three out of seven groups served as controls (N = 15, see Table 1). The 5 db/db mice were untreated and 10 db/db mice were vehicle treated either orally or intraperitoneally (i.p.). One additional group (n = 5) of lean C57BL/6NTac mice was used as a metabolically healthy control group. […]
Serum insulin (mouse insulin ELISA, Mercodia, Uppsala, Sweden), adiponectin (mouse adiponectin ELISA, AdipoGen, San Diego, CA, USA), leptin (mouse leptin ELISA, Crystal Chem, Downers Grove, IL, USA), and Mcp-1 (mouse/rat CCL2/JE/Mcp-1 Quantikine ELISA, R&D Systems, Minneapolis, MN, USA) levels were analyzed via ELISA according to the manufacturer's instructions. Serum concentrations of TG, FFA, and cholesterol were measured by an automatic chemical analyzer at the Institute of Laboratory Medicine and Clinical Chemistry.

obese Zucker rats = settings: free systemically administered tesa; ref [43]; cited from earlier work
3T3-L1 cells = experiment: qRT-PCR of adipocyte-marker genes, 3T3-L1; type: cell-based, murine; settings: qPCR, vs DMSO; n ≥ 3
Procedure: The 3T3-L1 or SGBS cells were seeded into 6-well plates and differentiated as previously described. Tesa or peptides were added to the differentiation medium at a concentration of 100 μM on day 2, followed by 12 h or 24 h incubation. On day 4, the cells were washed two times with PBS, harvested by trypsinization, and stored at −70 °C until RNA isolation was performed. […] N ≥ 3 independent experiments with two replicates were performed. For the cell culture experiments, the data were analyzed according to the 2^−ΔΔCt method using 36B4 or GAPDH as housekeeping genes and DMSO treatment as a control. Liver mRNA expression was calculated relative to 18sRNA, which was used as an internal control due to its resistance to glucose-dependent regulation. The mRNA levels were quantified using the standard curve method of QuantStudio 6 Flex software (Applied Biosystems, Foster City, CA, USA), determining the crossing points of the individual samples using an algorithm that identifies the first turning point of the fluorescence curve. Amplification of the specific transcripts was confirmed by the melting curve profiles (cooling the sample to 68 °C and heating slowly to 95 °C while measuring the fluorescence) at the end of each PCR [53].
(A, B) Cells were differentiated and stimulated according to the protocol depicted for 3T3-L1 (A) and for SGBS (B). […] Bars represent mean ± SEM from n = 3 independent experiments performed in quadruplicates. Measurements were normalized using DMSO (vehicle)-treated cells (set to 100%). Statistical significances refer to vehicle-treated cells. (E,F) Expression of adipocyte-enriched genes in 3T3-L1 (E) or SGBS (F) adipocytes analyzed by qPCR. Values represent mean ± SEM from n ≥ 3 independent experiments performed in duplicates. […] Statistical significances refer to DMSO-treated cells and were determined by one-way analysis of variance (ANOVA) followed by Dunnett's multiple comparison test, *≤0.05, **p ≤ 0.01, ***p ≤ 0.001.

CCO[C@@H](Cc1ccc(OCCc2ccc(OS(C)(=O)=O)cc2)cc1)C(=O)O [tesa, tesaglitazar]
free fatty acids (FFA) (Plasma free fatty acids): normalization | insulin sensitivity in obese Zucker rats (obese Zucker rats): restore insulin sensitivity in obese Zucker rats | Cidec expression, 3T3-L1 (3T3-L1 cells): enhanced | Fabp4 expression, 3T3-L1 (3T3-L1 cells): enhanced | adiponectin expression, 3T3-L1 (3T3-L1 cells): upregulated

From paper PMC6931124, “NPY1R-targeted peptide-mediated delivery of a dual PPARα/γ agonist to adipocytes enhances adipogenesis and prevents diabetes progression” (Molecular Metabolism, 2019)
